Row | SMILES | melting point [°C]
1 | NNC(=O)c1c(Cl)cccc1Cl | 180 to 182
2 | Cc1cc(C)c(S(=O)(=O)Cl)c(C)c1NS(C)(=O)=O | 175 to 177
3 | O=C(O)CNC(=O)c1cccs1 | 169 to 171
4 | Nn1c(S)nnc1C1CCCCO1 (stereo unspecified) | 162 to 164
5 | CNC(=O)C1CNCCO1 (stereo unspecified) | 93 to 95
6 | O=C(O)/C=C/c1nccs1 | 182 to 184
7 | N#Cc1cc(Br)cc(S(N)(=O)=O)c1 | 199 to 201
8 | NS(=O)(=O)c1ccc(F)c2ncccc12 | 256 to 258
9 | Sc1nncn1C1CC1 | 189 to 191
10 | CC(C)C(CN)C(=O)O (stereo unspecified) | 249 to 251
11 | Nc1nc2ccccc2n1-c1ccccc1F | 121 to 123
12 | CC(=O)NCc1ccc(Br)cc1 | 114 to 116
13 | COc1ccccc1-c1nn(Cc2ccccc2)cc1C(=O)O | 152 to 154
14 | COc1cc2nc(C)sc2cc1N | 89 to 91
15 | N#CCCCS(N)(=O)=O | 49 to 51
16 | N#Cc1cc(Br)cc(S(=O)(=O)Cl)c1 | 74 to 76
17 | CC(=O)Nc1cc(Cl)ccc1N | 137 to 139

Row | SMILES | melting point [°C]
18 | COc1ccc(CCC2CCCCN2)cc1OC (stereo unspecified) | 39 to 41
19 | O=C(O)C1CCN(C=CC(=O)C(F)(F)F)CC1 | 135 to 137
20 | CC(C)Cn1c(N)c(C=O)c(=O)n(C)c1=O | 192 to 194
21 | COc1ccc2c(c1)C(=NO)C(=O)N2 | 236 to 238
22 | Cc1c(Cl)ccc2ccc(N)nc12 | 134 to 136
23 | O=C1COc2cc(F)ccc2N1 | 206 to 208
24 | Cc1ccc(C2CS(=O)(=O)CCN2)o1 (stereo unspecified) | 111 to 113
25 | Oc1ccc(-c2nc3cc(Cl)ccc3s2)cc1 | 263 to 265
26 | Cc1nc2ccccc2c(N)c1C(C)C | 123 to 125
27 | O=C(O)C=Cc1cn(-c2ccccc2)nc1-c1cc2ccccc2o1 | 225 to 227
28 | NC1CCS(=O)(=O)c2ccc(Cl)cc21 (stereo unspecified) | 57 to 59
29 | N#Cc1cnc2ccccc2c1N | 274 to 276
30 | O=C1CCc2cc(OCCO)ccc2N1 | 180 to 182
31 | O=[N+]([O-])c1cnc(Cl)c(Cl)c1 | 52 to 54
32 | CCOC(=O)Nc1ccc(N)cc1C#N | 166 to 168
33 | Cc1cc(C=O)cc(C)c1OC(F)F | 56 to 58

More lines, now with the values ahead:

Row | melting point [°C] | SMILES
34 | 169 to 171 | O=C(O)c1ccccc1SCC(F)(F)F
35 | 295 to 297 | O=C(O)Cn1c(=O)[nH]c2ccccc2c1=O
36 | 157 to 159 | Cn1cc(C(=O)O)c(C2CCCCC2)n1
37 | 148 to 150 | O=C(O)CCc1ncc(-c2ccccc2)o1
38 | 256 to 258 | Cc1ccn2ncc(C(=O)O)c2n1
39 | 128 to 130 | NCc1cccc(NC(=O)N2CCCC2)c1
40 | 95 to 97 | O=C(O)CSCC(=O)c1ccccc1
41 | 229 to 231 | Cc1cc(=O)n(CC(=O)NC(C)C)c(C)c1C(=O)O
42 | 284 to 286 | Cc1cc(C(=O)O)c2cnn(C)c2n1
43 | 114 to 116 | O=C(c1ccc(Br)c([N+](=O)[O-])c1)N1CCOCC1
44 | 182 to 184 | O=C(O)CNC(=O)c1ccccc1Cl
45 | 313 to 315 | Nc1c(C(=O)O)cc(Br)c2c1C(=O)c1ccccc1C2=O
46 | 116 to 118 | CCOC(=O)C(=O)c1c(-c2ccc(C)cc2)nc2ccccn12
47 | 129 to 131 | Cc1cc(F)ccc1-n1cc(C(=O)O)nn1
48 | 293 to 295 | Cc1[nH]c2ccnn2c(=O)c1CC(=O)O
49 | 164 to 166 | O=C(O)c1cccc(Oc2ccc(Cl)cc2)c1
50 | 160 to 163 | Cc1ccc(-c2nn(-c3ccccc3)cc2C(=O)O)o1
51 | 158 to 162 | O=C(O)c1c(-n2cccc2)sc2c1CCCC2
52 | 113 to 115 | O=C(O)c1noc(-c2cccc(F)c2F)n1
53 | 179 to 181 | O=C(CC1CCCCC1)Nc1cccc2c1NCCC2
54 | 258 to 260 | N#C/C(=C/c1c[nH]nc1-c1cccc(Br)c1)C(=O)O
55 | 203 to 205 | Cc1nnnn1-c1cc(N)ccc1C(=O)O
56 | 137 to 139 | NC(=NO)c1ccccc1CN1CCC(O)CC1

Reference: a melting point compilation (Tetko et al.)
